The assay concerns upper airway collapsibility in anaesthetized, spontaneously breathing pigs. The assay can be described thus: pig model of obstructive sleep apnea (OSA): upper airway collapsibility under negative pressure. The format is in vivo, German Landrace pigs. To be noted: for Percent pigs without collaps −50 cm H2O / Percent pigs without collaps −100 cm H2O / Percent pigs without collaps −150 cm H2O: i.v. bolus 0.3 mg/kg then i.v. infusion 0.1 mg/kg/h. From the text:
The therapeutic potential of the compounds of formula (I) according to the present invention in sleep apnea has been assessed preclinically in a pig model of obstructive sleep apnea (OSA).
Using negative pressure, it is possible to induce collapse and thus obstruction of the upper respiratory tract in anaesthetized, spontaneously breathing pigs (Wirth K. J. et al., Sleep 36(5) (2013) pp. 699-708).
German Landrace pigs are used for the model. The pigs are anaesthetized and tracheotomized. Two tracheal are inserted into the trachea, one into the rostral part and the other into the caudal part of the trachea. Using a connection piece, the rostral cannula is connected to a tube to the negative pressure device and to the distal tracheal cannula. The distal tracheal cannula is additionally connected to a tube with an open end to atmosphere via a connection piece that served for free tracheal breathing, circumventing the upper airway. By appropriate opening and clamping of those tubes breathing can be switched from nasal breathing to breathing through the caudal tracheal cannula, circumventing the upper airway, and the (isolated) upper airway can be connected to the negative pressure device, causing airflow in the inspiratory direction.
At certain points in time, the collapsibility of the upper respiratory tract is tested by having the pig breathe via the caudal cannula and applying negative pressures of −50, −100 and −150 cm water head (cm H2O) to the upper respiratory tract. This causes the upper respiratory tract to collapse, which manifests itself in an interruption of the airflow and a pressure drop in the tube system. This test is conducted prior to the administration of the test substance and at certain intervals after the administration of the test substance. An appropriately effective test substance can prevent this collapse of the respiratory tract in the inspiratory phase.
In this OSA pig model, systemic application of the α2-Adrenoceptor subtype C (alpha-2C) antagonists of formula (I) (1S,12bS)-1-(methoxymethyl)-1-methyl-[…][2,3-a]quinolizine with i.v. bolus injection of 0.3 mg/kg followed by an i.v. infusion of 0.1 mg/kg/h for four hours inhibited upper airway collapsibility at all negative pressures of −50, −100 and −150 cm for more than 6 hours (see Table 1, 2 and 3 and FIG. 1).

The mark [1] stands for this setting: time 0 min (time of administration).

With `COC[C@@]1(C)CCCN2CCc3c(oc4ccccc34)[C@@H]21` [(1S,12bS)-1-(methoxymethyl)-1-methyl-1,3,4,6,7,12b-hexahydro-2H-[1]benzofuro[2,3-a]quinolizine], for the setting “all negative pressures of −50, −100 and −150 cm, i.v. bolus 0.3 mg/kg followed by i.v. infusion 0.1 mg/kg/h for four hours”, the “duration of inhibition of upper airway collapsibility” value was “more than 6 hours”. In addition, the “Percent pigs without collaps −50 cm H2O” value by setting is: under setting [1], 0%; (time 10 min) 100%; (time 60 min) 100%; (time 120 min) 100%; (time 180 min) 100%; (time 240 min) 100%. Under “time 300 min”, the “Percent pigs without collaps −50 cm H2O” value came out at 100%. Moreover, the “Percent pigs without collaps −100 cm H2O” value under setting [1] is given as 0%; the “Percent pigs without collaps −100 cm H2O” value (time 10 min) turned out to be 100%; the “Percent pigs without collaps −100 cm H2O” value (time 60 min) came out at 100%; the “Percent pigs without collaps −100 cm H2O” value (time 120 min) was 100%; the “Percent pigs without collaps −100 cm H2O” value (time 180 min) is given as 100%; the “Percent pigs without collaps −100 cm H2O” value (time 240 min) worked out at 100%. Also, the “Percent pigs without collaps −100 cm H2O” value (time 300 min) stood at 100%. The “Percent pigs without collaps −150 cm H2O” value under setting [1] is 0%; the “Percent pigs without collaps −150 cm H2O” value (time 10 min) amounted to 100%; the “Percent pigs without collaps −150 cm H2O” value (time 60 min) is listed as 100%; the “Percent pigs without collaps −150 cm H2O” value (time 120 min) was 100%; the “Percent pigs without collaps −150 cm H2O” value (time 180 min) came out at 100%; the “Percent pigs without collaps −150 cm H2O” value (time 240 min) is on record as 100%. Also, the “Percent pigs without collaps −150 cm H2O” value (time 300 min) came out at 100%.

Values taken from US20220218677A1, “ARYLQUINOZILINE DERIVATIVES AS ALPHA2-ADRENOCEPTOR SUBTYPE C (ALPHA-2C) ANTAGONISTS FOR THE TREATMENT OF SLEEP APNEA” (Bayer Aktiengesellschaft, priority 2019, published 2022).
